# “Also recorded” adds a separate entry of the source. Marks after values point to notes of the source that are not given here.
# Assays:
# [1] = system: Caco-2 cells; assay: Recovery of test article in the Caco-2 efflux assay; assay type: in vitro ADME; conditions: 1 and 10 μM, in the presence of cells
# Description: Non-specific binding of phenylacetic acid to the transwell assay plate in the absence of cells was not conducted. However, the recovery of the test article (1 and 10 μM) was determined in the Caco-2 efflux assay, in the presence of cells, and was acceptable.
# [2] = biological target: T1, BSEP (Homo sapiens, UniProt O95342); assay: in vitro
# T1 sequence (O95342 whole entry): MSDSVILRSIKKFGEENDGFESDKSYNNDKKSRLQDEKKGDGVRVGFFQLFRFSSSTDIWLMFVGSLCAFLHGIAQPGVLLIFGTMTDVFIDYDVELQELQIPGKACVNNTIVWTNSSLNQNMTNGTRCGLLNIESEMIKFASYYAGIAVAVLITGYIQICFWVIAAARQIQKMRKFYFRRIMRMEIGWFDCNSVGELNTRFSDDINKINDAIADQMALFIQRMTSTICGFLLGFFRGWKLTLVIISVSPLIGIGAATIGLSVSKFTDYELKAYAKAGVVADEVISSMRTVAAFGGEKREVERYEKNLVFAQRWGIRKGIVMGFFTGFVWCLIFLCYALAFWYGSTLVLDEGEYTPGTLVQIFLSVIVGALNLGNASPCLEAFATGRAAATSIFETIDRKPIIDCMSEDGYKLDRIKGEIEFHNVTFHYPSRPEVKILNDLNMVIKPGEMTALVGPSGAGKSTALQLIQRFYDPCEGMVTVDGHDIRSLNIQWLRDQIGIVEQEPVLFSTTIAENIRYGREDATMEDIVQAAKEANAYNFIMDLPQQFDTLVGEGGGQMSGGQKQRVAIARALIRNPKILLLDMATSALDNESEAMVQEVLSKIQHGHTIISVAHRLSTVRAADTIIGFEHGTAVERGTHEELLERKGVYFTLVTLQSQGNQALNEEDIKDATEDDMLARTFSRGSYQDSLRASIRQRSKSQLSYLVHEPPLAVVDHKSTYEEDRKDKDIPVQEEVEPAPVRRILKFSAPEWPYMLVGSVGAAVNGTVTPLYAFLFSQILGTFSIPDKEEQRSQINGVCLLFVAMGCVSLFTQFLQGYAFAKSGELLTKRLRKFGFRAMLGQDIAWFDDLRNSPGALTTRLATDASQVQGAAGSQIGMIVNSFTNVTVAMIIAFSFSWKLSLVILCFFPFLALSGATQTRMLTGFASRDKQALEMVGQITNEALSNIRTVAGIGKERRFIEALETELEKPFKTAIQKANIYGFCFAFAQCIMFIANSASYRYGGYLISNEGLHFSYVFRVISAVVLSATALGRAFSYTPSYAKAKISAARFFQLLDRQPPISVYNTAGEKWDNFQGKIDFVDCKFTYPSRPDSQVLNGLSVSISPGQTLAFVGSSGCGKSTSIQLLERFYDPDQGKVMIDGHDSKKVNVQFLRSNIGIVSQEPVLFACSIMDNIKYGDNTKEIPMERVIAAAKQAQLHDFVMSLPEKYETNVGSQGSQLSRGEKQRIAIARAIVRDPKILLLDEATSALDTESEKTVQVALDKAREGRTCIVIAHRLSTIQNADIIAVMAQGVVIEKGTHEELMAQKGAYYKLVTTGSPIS
# [3] = Solubility in stock solvent and assay buffers
# [4] = biological target: T1, BSEP; assay: Inhibition of 3H-taurocholic acid uptake by BSEP membrane vesicles (inhibitor assessment); conditions: for inhibitor of BSEP (conclusion in words): criterion >25% concentration-dependent inhibition of probe substrate uptake; for ATP-Dependent Uptake Activity of 3H-taurocholic acid / Signal-to-Noise Ratio / Uptake Activity of 3H-taurocholic acid, Mg-AMP / Uptake Activity of 3H-taurocholic acid, Mg-ATP: 3H-taurocholic acid 1 μM
# [5] = biological target: T1, BSEP; assay: ATP-dependent uptake of test article by BSEP-transfected Sf9 membrane vesicles (substrate assessment); conditions: for substrate of BSEP (conclusion in words): criteria ≥2-fold ATP-dependent uptake and >50% inhibition by selective inhibitor
# [6] = test article 1 μM + cyclosporine 20 μM
# [7] = test article 10 μM + cyclosporine 20 μM
compound,measurement,setting,value
O=C(O)Cc1ccccc1 [Phenylacetic acid],recovery of the test article in the Caco-2 efflux assay,[1],acceptable
same,"activity at 30 min, 750 μM",[2],99.6%
same,"activity at 30 min, 7500 μM",[2],0%
same,potency estimated from few doses at 30 min,[2],< 7.5 mM
same,solubility,"[3]; aqueous buffer, kinetic from dmso stock",7.5 mM
same,solubility,"[3]; methanol, organic solvent or mixture",1500 mM
same,inhibitor of BSEP (conclusion in words),[4],strongly inhibited; also recorded: identified as an inhibitor of BSEP; also recorded: inhibited BSEP
same,inhibitor of BSEP (conclusion in words),[4]; listed as phenylacetic acid,inhibit BSEP
same,ATP-Dependent Uptake Activity of 3H-taurocholic acid,[4]; inhibitor 750 μM,4.68 pmol/minute/mg protein
same,Signal-to-Noise Ratio,[4]; inhibitor 750 μM,17.2
same,"Uptake Activity of 3H-taurocholic acid, Mg-AMP",[4]; inhibitor 750 μM,0.288 pmol/minute/mg protein
same,"Uptake Activity of 3H-taurocholic acid, Mg-ATP",[4]; inhibitor 750 μM,4.96 pmol/minute/mg protein
same,ATP-Dependent Uptake Activity of 3H-taurocholic acid,[4]; inhibitor 7500 μM,−0.136 pmol/minute/mg protein
same,Signal-to-Noise Ratio,[4]; inhibitor 7500 μM,0.731
same,"Uptake Activity of 3H-taurocholic acid, Mg-AMP",[4]; inhibitor 7500 μM,0.506 pmol/minute/mg protein
same,"Uptake Activity of 3H-taurocholic acid, Mg-ATP",[4]; inhibitor 7500 μM,0.370 pmol/minute/mg protein
same,ATP-Dependent Uptake Activity of test article,[5]; test article 1 μM,24.2 pmol/minute/mg protein
same,Signal-to-Noise Ratio,[5]; test article 1 μM,9.95
same,"Uptake Activity of test article, Mg-AMP",[5]; test article 1 μM,2.71^b pmol/minute/mg protein
same,"Uptake Activity of test article, Mg-ATP",[5]; test article 1 μM,26.9 pmol/minute/mg protein
same,ATP-Dependent Uptake Activity of test article,[5]; [6],18.3 pmol/minute/mg protein
same,Signal-to-Noise Ratio,[5]; [6],3.41
same,"Uptake Activity of test article, Mg-AMP",[5]; [6],7.60^c pmol/minute/mg protein
same,"Uptake Activity of test article, Mg-ATP",[5]; [6],25.9 pmol/minute/mg protein
same,ATP-Dependent Uptake Activity of test article,[5]; test article 10 μM,814 pmol/minute/mg protein
same,Signal-to-Noise Ratio,[5]; test article 10 μM,12.6
same,"Uptake Activity of test article, Mg-AMP",[5]; test article 10 μM,70.3 pmol/minute/mg protein
same,"Uptake Activity of test article, Mg-ATP",[5]; test article 10 μM,884 pmol/minute/mg protein
same,ATP-Dependent Uptake Activity of test article,[5]; [7],772 pmol/minute/mg protein
same,Signal-to-Noise Ratio,[5]; [7],10.1
same,"Uptake Activity of test article, Mg-AMP",[5]; [7],84.7 pmol/minute/mg protein
same,"Uptake Activity of test article, Mg-ATP",[5]; [7],857 pmol/minute/mg protein
same,ATP-dependent BSEP uptake activity relative to AMP uptake,[5]; test article 1 and 10 μM,> 2 fold
same,substrate of BSEP (conclusion in words),[5]; test article 1 and 10 μM,not identified as a substrate
same,substrate of BSEP (conclusion in words),"[5]; test article 1 and 10 μM, listed as phenylacetic acid",not a substrate; also recorded: unlikely that phenylacetic acid is a substrate
same,inhibition of test article uptake by cyclosporine A,"[5]; test article 1 and 10 μM, cyclosporine A 20 μM",not inhibited by cyclosporine A
